Laboratory results reported in patent US8007737B2, “Use of antioxidants to prevent oxidation and reduce drug degradation in drug eluting medical devices” (Wyeth, priority 2004, dated 2011).
Where two headings read alike, the source gives them in different places. One block for each molecule: values may come before it.

Columns and labels:
[1] = Drug content (% label claim) of sirolimus solutions with antioxidants, HPLC assay
Method: Screening experiments were performed to evaluate the solubility of various antioxidants in […] (THF) solutions containing sirolimus and the percentage of antioxidant required to prevent oxidation of sirolimus alone and in a basecoat polymeric matrix. THF is the solvent in which sirolimus may be dissolved. It is important to note that other solvents may be utilized. Two sets of controls were utilized. Control #1 comprises solutions of THF and sirolimus and/or polymers with no antioxidant, and Control #2 comprises solutions of THF and sirolimus and/or polymers, wherein the THF contains a label claim of 250 ppm of BHT as a stabilizer from the vendor of THF. In other words, the BHT is an added constituent of the THF solvent to prevent oxidation of the solvent. All percentages are given as weight/volume.
Table 11, shown below, identifies the samples for evaluation. All percentages are given as weight/volume. The samples in Table 11 contain no polymer. Table 12, also shown below, identifies the samples for evaluation with the solutions now comprising polymers, including PBMA and PEVA as described herein.
(60° C.). The samples were evaluated after five (5) days utilizing a drug testing assay for silolimus. In the exemplary embodiment, a HPLC assay was utilized.
Additional samples were tested under ambient conditions, rather than at 60° C., and using the same compositions; however, the test period was expanded to seven weeks.

[2] = Percent drug content change on coated cobalt-chromium 18 mm stent; format: physicochemical; details: 0.02 weight percent BHT per total basecoat solids; 8 weeks and 12 weeks, ambient conditions (25° C.)
Description: Referring to FIG. 75, there is illustrated in graphical format, the results of the same drug screening as described above with the solution applied to a cobalt-chromium, 18 mm stent. In this test, two sets of solution samples were utilized, one with sirolimus and polymer solution containing the antioxidant and one with sirolimus and polymer solution containing no antioxidant. The antioxidant utilized was 0.02 weight percent BHT per total basecoat solids.
The test was utilized to determine the percent drug content change over a time period of 0 to 12 weeks under two conditions; namely, 40° C. with 75 percent relative humidity, and ambient conditions (25° C.).

[3] = Drug concentration in liquid formulations by liquid chromatography / HPLC; format: physicochemical
Description: In accordance with exemplary embodiments of the present invention, a series of liquid formulations were developed for the local or regional delivery of water insoluble compounds such as sirolimus and its analogs, including CCI-779, ABT-578 and everolimus, through weeping balloons and catheter injection needles. […] These liquid formulations increase the apparent solubility of the pharmacologically active but water insoluble compounds by two to four orders of magnitude as compared to the solubility limits of the compounds in water. These liquid formulations rely on the use of a very small amount of organic solvents such as Ethanol (typically less than two percent) and a larger amount of safe amphiphilic (of or relating to a molecule having a polar, water soluble group attached to a non-polar, water insoluble […]) excipients such as polyethylene glycol (PEG 200, PEG 400) and vitamin E TPGS to enhance the solubility of the compounds. These liquid formulations of highly water insoluble compounds are stable and readily flowable at room temperature. Certain excipients, such as Vitamin E TPGS and BHT may be utilized to enhance the storage stability of sirolimus compounds through their anti-oxidation properties. […]

[4] = system: human coronary artery smooth muscle cells; assay: Anti-proliferative activity in non-synchronized cultured cells stimulated with two percent fetal bovine serum; format: cell-based; details: for effect on the anti-proliferative activity of rapamycin: non-synchronized cells, mycophenolic acid zero to one thousand nanomolar, cladribine zero to nine hundred nanomolar
Description: The multiple curves represent various concentrations of mycophenolic acid ranging from zero to one thousand nanomolar concentrations.
FIG. 58 illustrates, in graphical format, the anti-proliferative activity of cladribine in non-synchronized cultured human coronary artery smooth muscle cells stimulated with two percent fetal bovine serum.
The multiple curves represent various concentrations of cladribine ranging from zero to nine hundred nanomolar concentrations.

[5] = In vivo release kinetics from polymeric stent coatings, porcine pharmacokinetics studies
Description: The topcoat is two hundred micro grams. […] Cladribine (2-chlorodeoxyadenosine or 2-CdA) is the 2-chloro-2′-deoxy derivative of the purine nucleoside, adenosine. Cladribine is resistant to degradation by adenosine deaminase, one of two intracellular adenine nucleotide regulatory enzymes, found in most cells. The other enzyme, 5′-nucleotidase, is present in variable amounts in different cell types (Carson et al., 1983). […] Thus, in cells such as leukocytes, which contain a high ratio (>0.04) of deoxycytidine kinase to 5′-nucleotidase, 2-CdA and its subsequent metabolites will tend to accumulate in pharmacological concentrations (Carson et al., 1983). Such high levels of a nucleoside triphosphate are known to inhibit the enzyme ribonucleotide reductase in rapidly dividing cells, thus preventing synthesis of deoxynucleotides required for DNA synthesis.
FIG. 61 is a graphical representation of the in vivo release kinetics of cladribine from a polymeric coating on Bx Velocity® stents, available from Cordis Corporation, implanted in a Yorkshire pig. […] The total weight of the topcoat is three hundred micrograms.
(§1) The basecoat is applied to Bx Velocity® stents and implanted into Yorkshire pigs.
as §1

[6] = system: human smooth muscle cells; assay: Cladribine Example: PDGF-stimulated cell proliferation, cell count on day six; format: cell-based; details: from IC50 values
Method: To assess the ability of cladribine to prevent cell proliferation, human smooth muscle or endothelial cells (Clonetics, Walkersville, Md.) were seeded at a density of 2000 cells/cm^2 (approximately 3600 cells/well) into each well of 12-well plates and cultured with 1.5 ml of growth medium containing five percent fetal calf serum (FCS). After twenty-four hours, the growth medium was changed and fresh medium containing 10 ng/ml platelet-derived growth factor AB (PDGF AB; LIFE Technologies), as well as various concentrations of cladribine (0.001-10,000 nM) were added with triplicate wells. Medium was replaced with fresh cladribine-containing medium after three days. On day six, cells were detached by trypsinization to yield a cell suspension, lightly centrifuged to pellet and then counted manually using a Neubauer hemocytometer system. Cell viability was assessed by trypan blue exclusion.

[7] = system: human coronary artery smooth muscle cells; assay: Anti-proliferative activity in synchronized cultured cells stimulated with two percent fetal bovine serum; format: cell-based; details: for effect on the anti-proliferative activity of rapamycin: topotecan zero to three hundred nanomolar, etoposide zero to eight hundred nanomolar, Panzem zero to 100 micromolar
Description: (§2) The multiple curves represent various concentrations of topotecan ranging from zero to three hundred nanomolar concentrations.
(§3) The multiple curves represent various concentrations of etoposide ranging from zero to eight hundred nanomolar concentrations.
The multiple curves represent various concentrations of Panzem® ranging from zero to 100 micromolar concentrations.

[8] = system: human coronary artery smooth muscle cell survival; details: concentrations up to 30,000.00 nanomolar
Description: In vitro cytotoxicity tests or assays may be utilized to determine if drugs, agents and/or compounds are potentially toxic and the level of toxicity. Essentially, in vitro cytotoxicity assays determine acute necrotic effects by a drug causing direct cellular damage. The idea behind these assays is that toxic chemicals affect basic functions of cells which are common to all cells. […] There are a number of different assays that may be utilized. In the present invention, the cytotoxicity assay utilized is based upon the measurement of cellular metabolic activity. A reduction in metabolic activity is an indication of cellular damage. Tests that can measure metabolic function measure cellular ATP levels or mitochondrial activity via MTS metabolism. FIG. 69 is a graphical representation of the results of an MTS assay of Panzem®.

cell viability = assay: Cell viability assay; format: cell-based
Description: as §2, §3

[9] = system: human coronary artery smooth muscle cell proliferation; assay: In vitro cell culture study of coronary artery smooth muscle cell proliferation; format: cell-based
Description: FIG. 51 is a graph of the inhibition of coronary artery smooth muscle cells by trichostatin A in a cell culture study.

tumor cell lines = details: Woo et al. 2002; cited from earlier work

- protection of sirolimus against degradation [1]: significant protection
Molecule: O=C1O[C@H]([C@@H](O)CO)C(O)=C1O [Ascorbic Acid]

- concentration in the final solution (HPLC assay) ([3]; water and ethanol (less than two percent) as co-solvents, Vitamin E TPGS as excipient): 15000 µg/mL
Molecule: CO[C@H]1C[C@@H]2CC[C@@H](C)[C@@](O)(O2)C(=O)C(=O)N2CCCC[C@H]2C(=O)O[C@H]([C@H](C)C[C@@H]2CC[C@@H](OC(=O)C(C)(CO)CO)[C@H](OC)C2)CC(=O)[C@H](C)/C=C(\C)[C@@H](O)[C@@H](OC)C(=O)[C@H](C)C[C@H](C)/C=C/C=C/C=C/1C [CCI-779]

- in vivo elution from coating relative to rapamycin ([5]; EVA/BMA basecoat, BMA topcoat, Bx Velocity stents, Yorkshire pigs): elutes more rapidly than rapamycin
- in vivo elution from coating ([5]; PVDF/HFP 85/15 basecoat and topcoat, Bx Velocity stents, Yorkshire pig, after the first day): levels off significantly
Molecule: Nc1nc(Cl)nc2c1ncn2[C@H]1C[C@H](O)[C@@H](CO)O1 [Cladribine, 2-chlorodeoxyadenosine]
- effect on the anti-proliferative activity of rapamycin [4]: increases the percent inhibition of rapamycin alone
- inhibition of human coronary artery smooth muscle cell proliferation ([4]; non-synchronized, two percent fetal bovine serum): completely inhibits
- potency on smooth muscle cells relative to endothelial cells [6]: approximately twice as potent

- concentration relative to the solubility of sirolimus in water ([3]; 4 mg/ml formulation with PEG 200, ethanol and water): four hundred to about one thousand
Molecule: CO[C@H]1C[C@@H]2CC[C@@H](C)[C@@](O)(O2)C(=O)C(=O)N2CCCC[C@H]2C(=O)O[C@H]([C@H](C)C[C@@H]2CC[C@@H](O)[C@H](OC)C2)CC(=O)[C@H](C)/C=C(\C)[C@@H](O)[C@@H](OC)C(=O)[C@H](C)C[C@H](C)/C=C/C=C/C=C/1C [Rapamycin, rapamycin]
- in vivo release rate from coating ([5]; pig, in vivo): slower release rate than that of mycophenolic acid

- protection of sirolimus against degradation ([1]; five days at 60° C.): significant protection
- protection of sirolimus against degradation ([1]; four weeks at 60° C., higher percent concentrations of antioxidant): significant protection
Molecule: Tocopherol

The next lines start with the molecule.

Molecule: Cc1cc(C(C)(C)C)c(O)c(C(C)(C)C)c1 [BHT, Butylated Hydroxytoluene]
- protection of sirolimus against degradation [1]: significant protection
- percent drug content change on stent [2]: lessens drug degradation

Molecule: COc1cc2c(cc1O)CC[C@@H]1[C@@H]2CC[C@]2(C)[C@@H](O)CC[C@@H]12 [Panzem®, 2-methoxyestradiol]
- effect on the anti-proliferative activity of rapamycin [7]: increases the percent of inhibition of rapamycin alone
- anti-proliferative activity ([7]; two percent fetal bovine serum): extremely effective inhibitor
- cytotoxicity (MTS assay) [8]: do not reduce human coronary artery smooth muscle cell survival

Molecule: COc1cc([C@@H]2c3cc4c(cc3[C@@H](O[C@@H]3O[C@@H]5CO[C@@H](C)O[C@H]5[C@H](O)[C@H]3O)[C@H]3COC(=O)[C@H]23)OCO4)cc(OC)c1O [etoposide]
- effect on the anti-proliferative activity of rapamycin [7]: increases the percent inhibition of rapamycin alone
- cytotoxicity (cell viability; concentrations up to ten micromolar): non-cytotoxic

Molecule: COc1c(C)c2c(c(O)c1C/C=C(\C)CCC(=O)O)C(=O)OC2 [mycophenolic acid]
- effect on the anti-proliferative activity of rapamycin [4]: potentiates the anti-proliferative activity of rapamycin

Molecule: CC[C@@]1(O)C(=O)OCc2c1cc1n(c2=O)Cc2cc3c(CN(C)C)c(O)ccc3nc2-1 [topotecan]
- effect on the anti-proliferative activity of rapamycin [7]: increases the percent inhibition of rapamycin alone
- cytotoxicity (cell viability; concentrations up to one micromolar): non-cytotoxic

Molecule: CC(/C=C/C(=O)NO)=C\[C@@H](C)C(=O)c1ccc(N(C)C)cc1 [trichostatin A]
- inhibition of human coronary artery smooth muscle cell proliferation [9]: completely inhibit
- IC50 ([9]; human coronary artery smooth muscle cells, read-out: anti-proliferative IC50): ~6 nM
- anti-proliferative IC50's (tumor cell lines): low nM range
